Read-outs that look alike come from different tables or passages of the source.
Test system: HBV
Test: HBV-DNA Antiviral Assay Using HepG2.117 Cells (intracellular HBV DNA by qPCR)
Assay type: cell-based, hepatitis B virus (genotype D)
Procedure, shortened: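 Endpoint: qPCR copy number of intracellular HBV DNA after 3-day compound exposure, with inhibition set relative to the 2% DMSO control. The cells were doxycycline-free HepG2.117 carrying a Tet-off genotype D genome, dosed at nine 4-fold dilutions. A duplicate plate gave ATP-based viability (CC50).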

SMILES | EC50 (Hepatitis B virus, HepG2.117) | EC50 (HBV DNA inhibition, HepG2.117 cells, intracellular HBV DNA by qPCR (Table 4), read-out: EC50)
N#CCOc1ccc(-n2c(C(=O)NCc3ccccc3)c3n(c2=O)CCN(C(=O)c2ccc(Br)c(Cl)c2)C3)cc1 [Example 265, N-benzyl-7-(4-bromo-3-chloro-benozyl)-2-[4-(cyanomethoxy)phenyl]-3-oxo-6,8-dihydro-5H-imidazo[1,5-a]pyrazine-1-carboxamide] | 500 to 5000 nM | 
COc1ccc(CNC(=O)c2c3n(c(=O)n2-c2ccc(OCC(F)(F)F)cc2)CCN(C(=O)c2ccc(Br)c(Cl)c2)C3)c(OC(F)F)c1 [Example 266] | 100 to 500 nM | 
O=C(NCc1ccccc1)c1c2n(c(=O)n1-c1ccc(-n3cccn3)cc1)CCN(C(=O)c1ccc(Br)c(Cl)c1)C2 [Example 271, N-benzyl-7-(4-bromo-3-chloro-benzoyl)-3-oxo-2-(4-pyrazol-1-ylphenyl)-6,8-dihydro-5H-imidazo[1,5-a]pyrazine-1-carboxamide] | 100 to 500 nM | 
CC(C)COc1ccc(-n2c(C(=O)NCc3ccccc3)c3n(c2=O)CCN(C(=O)c2ccc(Br)c(Cl)c2)C3)cc1 [Example 272, N-benzyl-7-(4-bromo-3-chloro-benzoyl)-2-(4-isobutoxyphenyl)-3-oxo-6,8-dihydro-5H-imidazo[1,5-a]pyrazine-1-carboxamide] | 100 to 500 nM | 
COc1ccc(-n2c(-c3ccccn3)c3n(c2=O)CCN(C(=O)c2ccc(Br)c(Cl)c2)C3)cc1 [Example 275, 7-(4-bromo-3-chloro-benzoyl)-2-(4-methoxyphenyl)-1-(2-pyridyl)-6,8-dihydro-5H-imidazo[1,5-a]pyrazin-3-one] | > 5000 nM | 
Cc1coc2ccc(-n3c(C(=O)NCc4ccccc4)c4n(c3=O)CCN(C(=O)c3ccc(Br)c(Cl)c3)C4)cc12 [Example 276] | 100 to 500 nM | 
O=C(NCc1cccc2nccnc12)c1c2n(c(=O)n1-c1ccc(OCC(F)(F)F)cc1)CCN(C(=O)c1ccc(Br)c(Cl)c1)C2 [Example 277, 7-(4-bromo-3-chloro-benzoyl)-3-oxo-N-(quinoxalin-5-ylmethyl)-2-[4-(2,22,- trifluoroethoxy)phenyl]-6,8-dihydro-5H-imidazo[1,5-a]pyrazine-1-carboxamide] | < 100 nM | 
O=C(NCc1ccccc1)c1c2n(c(=O)n1-c1ccc(N3CCOCC3)cc1)CCN(C(=O)c1ccc(Br)c(Cl)c1)C2 [Example 278, N-benzyl-7-(4-bromo-3-chloro-benzoyl)-2-(4-morpholinophenyl)-3-oxo-6,8-dihydro-5H-imidazo[1,5-a]pyrazine-1-carboxamide] | 100 to 500 nM | 
O=C(NCc1ccc(OC(F)(F)F)cc1F)c1c2n(c(=O)n1-c1ccc(OCC(F)(F)F)cc1)CCN(C(=O)c1ccc(Br)c(Cl)c1)C2 [Example 284, 7-(4-bromo-3-chloro-benzoyl)-N-[[2-fluoro-4-(trifluoromethoxy)phenyl]methyl]-3-oxo-2-[4-(2,2,2-trifluoroethoxy)phenyl]-6,8-dihydro-5H-imidazo[1,5-a]pyrazine-1-carboxamide] | 500 to 5000 nM | 
NC(=O)COc1ccc(-n2c(C(=O)NCc3ccccc3)c3n(c2=O)CCN(C(=O)c2ccc(Br)c(Cl)c2)C3)cc1 [Example 285, 2-[4-(2-amino-2-oxo-ethoxy)phenyl]-N-benzyl-7-(4-bromo-3-chloro-benzoyl)-3-oxo-6,8-dihydro-5H-imidazo[1,5-a]pyrazine-1-carboxamide] | 500 to 5000 nM | 
O=C(NCc1ccc(OC(F)F)cc1F)c1c2n(c(=O)n1-c1ccc(OCC(F)(F)F)cc1)CCN(C(=O)c1ccc(Br)c(Cl)c1)C2 [Example 286, 7-(4-bromo-3-chloro-benzoyl)-N-[[4-(difluoromethoxy)-2-fluoro-phenyl]methyl]-3-oxo-2-[4-(2,2,2-trifluoroethoxy)phenyl]-6,8-dihydro-5H-imidazo[1,5-a]pyrazine-1-carboxamide] | 500 to 5000 nM | 
N#Cc1ccc(CNC(=O)c2c3n(c(=O)n2-c2ccc(OCC(F)(F)F)cc2)CCN(C(=O)c2ccc(Br)c(Cl)c2)C3)c(F)c1 [Example 287, 7-(4-bromo-3-chloro-benzoyl)-N-[(4-cyano-2-fluoro-phenyl)methyl]-3-oxo-2-[4-(2,2,2-trifluoroethoxy)phenyl]-6,8-dihydro-5H-imidazo[1,5-a]pyrazine-1-carboxamide] | 500 to 5000 nM | 
CC(C)Oc1ccc(-n2c(C(=O)NCc3ccc(C(=O)O)cc3)c3n(c2=O)CCN(C(=O)c2ccc(Br)c(Cl)c2)C3)cc1 [Example 294, 4-[[[7-(4-bromo-3-chloro-benzoyl)-2-(4-isopropoxyphenyl)-3-oxo-6,8-dihydro-5H-imidazo[1,5-a]pyrazine-1-carbonyl]amino]methyl]benzoic acid] | > 5000 nM | 
Cc1cc2occc2cc1CNC(=O)c1c2n(c(=O)n1-c1ccc(OCC(F)(F)F)cc1)CCN(C(=O)c1ccc(Br)c(Cl)c1)C2 [Example 295, 7-(4-bromo-3-chloro-benzoyl)-N-[(6-methylbenzofuran-5-yl)methyl]-3-oxo-2-[4-(2,2,2-trifluoroethoxy)phenyl]-6,8-dihydro-5H-imidazo[1,5-a]pyrazine-1-carboxamide] | 100 to 500 nM | 
O=C(NCc1ccc(OC(F)(F)F)cc1F)c1c2n(c(=O)n1-c1ccc(OC3CC3)cc1)CCN(C(=O)c1ccc(Br)c(Cl)c1)C2 [Example 296, 7-(4-bromo-3-chloro-benzoyl)-2-[4-(cyclopropoxy)phenyl]-N-[[2-fluoro-4-(trifluoromethxoy)phenyl]methyl]-3-oxo-6,8-dihydro-5H-imidazo[1,5-a]pyrazine-1-carboxamide] | 500 to 5000 nM | 
O=C(NCc1ccc(OC(F)F)cc1F)c1c2n(c(=O)n1-c1ccc(OC3CC3)cc1)CCN(C(=O)c1ccc(Br)c(Cl)c1)C2 [Example 297, 7-(4-bromo-3-chloro-benzoyl)-2-[4-(cyclopropoxy)phenyl]-N-[[4-(difluoromethoxy)-2-fluoro-phenyl]methyl]-3-oxo-6,8-dihydro-5H-imidazo[1,5-a]pyrazine-1-carboxamide] | 100 to 500 nM | 
O=C(NCc1ccccc1)c1c2n(c(=O)n1-c1ccc3[nH]ncc3c1)CCN(C(=O)c1ccc(Br)c(Cl)c1)C2 [Example 298, N-benzyl-7-(4-bromo-3-chloro-benzoyl)-2-(1H-indazol-5-yl)-3-oxo-6,8-dihydro-5H-imidazo[1,5-a]pyrazine-1-carboxamide] | 500 to 5000 nM | 
NC(=O)COc1ccc(CNC(=O)c2c3n(c(=O)n2-c2ccc(OCC(F)(F)F)cc2)CCN(C(=O)c2ccc(Br)c(Cl)c2)C3)c(F)c1 [Example 303, N-[[4-(2-amino-2-oxo-ethoxy)-2-fluoro-phenyl]methyl]-7-(4-bromo-3-chloro-benzoyl)-3-oxo-2-[4-(2,2,2-trifluoroethoxy)phenyl]-6,8-dihydro-5H-imidazo[1,5-a]pyrazine-1-carboxamide] | 500 to 5000 nM | 
O=C(NCc1ccccc1-n1cncn1)c1c2n(c(=O)n1-c1ccc(OCC(F)(F)F)cc1)CCN(C(=O)c1ccc(Br)c(Cl)c1)C2 [Example 304, 7-(4-bromo-3-chloro-benzoyl)-3-oxo-N-[[2-(1,2,4-triazol-1-yl)phenyl]methyl]-2-[4-(2,2,2-trifluoroethoxy)phenyl]-6,8-dihydro-5H-imidazo[1,5-a]pyrazine-1-carboxamide] | < 100 nM | 
O=C(NCc1c(F)cccc1Cl)c1c2n(c(=O)n1-c1ccc(OC3CC3)cc1)CCN(C(=O)c1ccc(Br)c(Cl)c1)C2 [Example 305, 7-(4-bromo-3-chloro-benzoyl)-N-[(2-chloro-6-fluoro-phenyl)methyl]-2-[4-(cyclopropoxy)phenyl]-3-oxo-6,8-dihydro-5H-imidazo[1,5-a]pyrazine-1-carboxamide] | 100 to 500 nM | 
O=C(NCc1c(F)cccc1F)c1c2n(c(=O)n1-c1ccc(OC3CC3)cc1)CCN(C(=O)c1ccc(Br)c(Cl)c1)C2 [Example 306, 7-(4-bromo-3-chloro-benzoyl)-2-[4-(cyclopropoxy)phenyl]-N-[(2,6-difluorophenyl)methyl]-3-oxo-6,8-dihydro-5H-imidazo[1,5-a]pyrazine-1-carboxamide] | 100 to 500 nM | 
N#Cc1ccc(CNC(=O)c2c3n(c(=O)n2-c2ccc(OC4CC4)cc2)CCN(C(=O)c2ccc(Br)c(Cl)c2)C3)c(F)c1 [Example 307] | 500 to 5000 nM | 
COc1ccc(-n2c(-c3ncccc3Cc3ccccc3)c3n(c2=O)CCN(C(=O)c2ccc(Br)c(Cl)c2)C3)cc1 [Example 308, 1-(3-benzyl-2-pyridyl)-7-(4-bromo-3-chloro-benzoyl)-2-(4-methoxyphenyl)-6,8-dihdyro-5H-imidazo[1,5-a]pyrazin-3-one] |  | 500 to 5000 nM
CNc1ccc(-n2c(C(=O)NCc3ccccc3)c3n(c2=O)CCN(C(=O)c2ccc(Br)c(Cl)c2)C3)cc1 [Example 311, N-benzyl-7-(4-bromo-3-chloro-benzoyl)-2-[4-(methylamino)phenyl]-3-oxo-6,8-dihydro-5H-imidazo[1,5-a]pyrazine-1-carboxamide] | 100 to 500 nM | 
O=C(NCc1ccccc1)c1c2n(c(=O)n1-c1ccc(-n3ccnc3)cc1)CCN(C(=O)c1ccc(Br)c(Cl)c1)C2 [Example 312, N-benzyl-7-(4-bromo-3-chloro-benzoyl)-2-(4-imidazol-1-ylphenyl)-3-oxo-6,8-dihydro-5H-imidazo[1,5-a]pyrazine-1-carboxamide] | 500 to 5000 nM | 
N#CCOc1ccc(CNC(=O)c2c3n(c(=O)n2-c2ccc(OC4CC4)cc2)CCN(C(=O)c2ccc(Br)c(Cl)c2)C3)c(F)c1 [Example 323, 7-(4-bromo-3-chloro-benzoyl)-N-[[4-(cyanomethoxy)-2-fluoro-phenyl]methyl]-2-[4-(cyclopropoxy)phenyl]-3-oxo-6,8-dihydro-5H-imidazo[1,5-a]pyrazine-1-carboxamide] | 100 to 500 nM | 
NC(=O)COc1ccc(CNC(=O)c2c3n(c(=O)n2-c2ccc(OC4CC4)cc2)CCN(C(=O)c2ccc(Br)c(Cl)c2)C3)c(F)c1 [Example 324, N-[[4-(2-amino-2-oxo-ethoxy)-2-fluoro-phenyl]methyl]-7-(4-bromo-3-chloro-benzoyl)-2-[4-(cyclopropoxy)phenyl]-3-oxo-6,8-dihydro-5H-imidazo[1,5-a]pyrazine-1-carboxamide] | 100 to 500 nM | 

Source: patent publication US11591341B2 (ALIGOS THERAPEUTICS, INC., priority 2019, dated 2023)
